From patent publication US20240374573A1, “IMIDAZOLE CONTAINING COMPOUNDS, DERIVATIVES THEREFORE, AND USES THEREOF” (AglaeaPharma Inc., priority 2023, published 2024) come the findings set out here.

For orientation: Ki means the dissociation constant of the complex between target and ligand, obtained from inhibition or displacement.

Each structure is given as a SMILES string. Bounds are passed on as bounds.

For the first assay, the target named is T1, α2AAR (Homo sapiens, UniProt P08913).
T1 construct: host or cells: HEK293 (membranes)
T1 sequence (P08913 1-465): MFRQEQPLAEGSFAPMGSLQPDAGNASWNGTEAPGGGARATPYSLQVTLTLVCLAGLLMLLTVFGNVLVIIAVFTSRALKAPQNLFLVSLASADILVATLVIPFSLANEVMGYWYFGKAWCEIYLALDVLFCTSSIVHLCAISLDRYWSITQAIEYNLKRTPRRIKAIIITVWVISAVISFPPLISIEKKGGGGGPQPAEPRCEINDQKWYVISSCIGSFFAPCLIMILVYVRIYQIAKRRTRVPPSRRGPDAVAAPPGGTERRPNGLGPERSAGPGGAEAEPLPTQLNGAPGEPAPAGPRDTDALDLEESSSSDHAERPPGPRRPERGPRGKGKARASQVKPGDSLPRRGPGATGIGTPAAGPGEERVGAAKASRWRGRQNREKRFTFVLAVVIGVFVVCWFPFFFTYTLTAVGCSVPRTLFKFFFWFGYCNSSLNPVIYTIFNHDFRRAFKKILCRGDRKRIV
The assay can be described thus: α2AAR binding assay ([3H]-RX 821002 radioligand). Conditions: [3H]-RX 821002 0.5 nM, HEK293 membranes; read-out: α2A affinity (Ki). As to the method:
The α2AR Binding Assay was conducted using a stable HEK293 cell line, specifically constructed by WuXi AppTec for targeting α2AAR. […] Both the assay and wash buffers consist of 50 mM Tris-HCl at a pH of 7.4 (Tris base, Sigma, T1503-1 KG).
The procedure initiated with the preparation of test compounds and a reference compound, yohimbine (Sigma, Y3125), through an 8-point 4-fold serial dilution, transferring 1 μL of each to the assay plate. […] After scaling, the plates were agitated at room temperature for one hour. Subsequently, the Unifilter-96 GF/C filter plates were pre-soaked with 0.3% PEI (Sigma, P3143) for at least half an hour. The reaction mixtures were then filtered and washed four times with cold wash buffer using a Perkin Elmer Cell harvester. Post-filtration, the plates were dried at 50° C. for one hour. […] The top of the plates was then sealed with TopSeal-A sealing film. The trapped 3H was quantified using a Perkin Elmer MicroBeta2 Reader. […] Finally, the data were analyzed with Prism 5.0 software, employing the “log (inhibitor) vs. response-Variable slope” model for data fitting. This comprehensive process ensured precise assessment of the binding affinity of compounds to the α2AAR.
For the compound `Cc1cccc(C(c2cccc(NC(=O)CCC#N)c2)c2c[nH]cn2)c1C` (single isomer, unassigned) [43-A], the Ki is above 1000 nM.

For `Cc1cccc(C(c2c[nH]cn2)c2cccc(C(N)=O)c2F)c1C` (single isomer, unassigned) [45-A], the inhibitory constant (Ki) is above 1000 nM. For the compound `Cc1cccc(C(c2cccc(OCCNS(C)(=O)=O)c2)c2c[nH]cn2)c1C` (single isomer, unassigned) [46-A], the Ki was above 1000 nM. As to `Cc1cccc(C(c2cccc(C(=O)NCC3CCOCC3)c2)c2c[nH]cn2)c1C` (single isomer, unassigned) [98-A], the Ki lay within 250 to 1000 nM. Regarding `Cc1cccc(C(Cc2cccc(NS(=O)(=O)CC3CCOCC3)c2)c2c[nH]cn2)c1C` (single isomer, unassigned) [112-A], the Ki lay in the range of 250 to 1000 nM. The same measure, in the same setting: for `Cc1cccc(C(c2c[nH]cn2)c2cccc(C(=O)NCC3CCOCC3)c2F)c1C` (single isomer, unassigned) [124-A] the value was 250 to 1000 nM; for `Cc1cccc(C(Cc2ccc(C(N)=O)c(F)c2)c2c[nH]cn2)c1C` (single isomer, unassigned) [156-A], above 1000 nM; for `Cc1cccc(C(Cc2ccc(C(=O)O)cc2)c2c[nH]cn2)c1C` (single isomer, unassigned) [175-A], above 1000 nM. The same measure, in the same setting: then `Cc1cccc(C(OCCOCCNS(C)(=O)=O)c2c[nH]cn2)c1C` (stereo not drawn) [compound 40], with above 1000 nM; and `Cc1cccc(C(c2c[nH]cn2)c2cccc(NC(=O)CC#N)c2F)c1C` (stereo not drawn) [compound 41], with 50 to 250 nM. Still for that read-out and setting: for `Cc1cccc(C(c2cccc(NC(=O)CCC(N)=O)c2)c2c[nH]cn2)c1C` (stereo not drawn) [compound 42] the value was 50 to 250 nM.

As for `Cc1cccc(C(c2cccc(OCCC#N)c2)c2c[nH]cn2)c1C` (stereo not drawn) [compound 48], the Ki was above 1000 nM. For `CONC(=O)c1cccc(C(c2ccccc2)c2c[nH]cn2)c1` (stereo not drawn) [compound 49], the Ki is above 1000 nM. On to `CONC(=O)c1cc(C(c2c[nH]cn2)c2cccc(C)c2C)ccc1F` (stereo not drawn) [compound 53], for which the Ki lay in the range of 250 to 1000 nM. In the case of `Cc1cccc(C(c2ccnc(NS(C)(=O)=O)c2)c2c[nH]cn2)c1C` (stereo not drawn) [compound 57], the Ki lay within 250 to 1000 nM.

As to `Cc1cccc(C(c2c[nH]cn2)c2ccnc(C(N)=O)c2F)c1C` (stereo not drawn) [compound 58], the Ki was in the range of 50 to 250 nM. Turning to `Cc1cccc(C(c2c[nH]cn2)C2CCCC(C(=O)O)C2)c1C` (stereo not drawn) [compound 60], the Ki fell in the range of 250 to 1000 nM. On to `COC(=O)Nc1cccc(C(c2c[nH]cn2)c2cccc(C)c2C)c1` (stereo not drawn) [compound 62], for which the Ki was in the range of 50 to 250 nM. Same read-out and setting: then `CC(=O)NCc1cccc(C(c2c[nH]cn2)c2cccc(C)c2C)c1` (stereo not drawn) [compound 65], with 50 to 250 nM; and `Cc1cccc(C(c2cccc(C#N)c2)c2c[nH]cn2)c1C` (stereo not drawn) [compound 68], with 50 to 250 nM; and `Cc1cccc(C(c2cccc(CNS(C)(=O)=O)c2)c2c[nH]cn2)c1C` (stereo not drawn) [compound 69], with 50 to 250 nM.

Consider `Cc1cccc(C(c2cccc(N(C)S(C)(=O)=O)c2)c2c[nH]cn2)c1C` (stereo not drawn) [compound 71], for which the inhibition constant Ki fell in the range of 10 to 50 nM. Same read-out and setting: then `Cc1c(F)cccc1C(c1cccc(NS(C)(=O)=O)c1)c1c[nH]cn1` (stereo not drawn) [compound 75], with 50 to 250 nM; and `Cc1cccc(C(c2cccc(NS(=O)(=O)C(F)(F)F)c2)c2c[nH]cn2)c1C` (stereo not drawn) [compound 77], with 250 to 1000 nM; and `CS(=O)(=O)Nc1cccc(C(c2c[nH]cn2)c2c(F)cccc2Cl)c1` (stereo not drawn) [compound 78], with 250 to 1000 nM.

Take `Cc1cccc(C(c2cccc(NC(=O)CCN3CCN(C)CC3)c2)c2c[nH]cn2)c1C` (stereo not drawn) [compound 82]: the Ki is above 1000 nM. Same read-out and setting: then `Cc1cccc(C(c2cccc(NCCNS(C)(=O)=O)c2)c2c[nH]cn2)c1C` (stereo not drawn) [compound 83], with 50 to 250 nM.

The assay is the same for the next values; noted with them: α2A affinity (Ki, nM).
`Cc1cccc(C(c2cnc[nH]2)C2CCc3ccc(O)cc32)c1C` (single isomer, unassigned) [100-A] registered a Ki below 10 nM. Take `Cc1cccc(C(c2cnc[nH]2)C2CCc3ccc(O)cc32)c1C` (single isomer, unassigned) [100-B]: the Ki fell in the range of 50 to 250 nM. As for `Cc1cccc(C(COCCNS(C)(=O)=O)c2c[nH]cn2)c1C` (stereo not drawn) [compound 66], the Ki is 250 to 1000 nM.
